Source: patent US20210267948A1, “TREATMENT OF CANCER” (CITY OF HOPE, priority 2017, published 2021)

Legend:
[1] = tested on: multiple human cancer cell lines; assay: In vitro activity in multiple human cancer cell lines; format: cell-based; settings: in most cases
HCC1937 tumors = assay: Orthotopic tumor model, HCC1937; format: in vivo, mouse; settings: HCC1937 in mammary fat pads, NSG mice, daily oral 400 mg/kg, 28 days
Method: Orthotopic Tumor Model. Experiments in mice were conducted under a protocol approved by the IACUC of City of Hope. Because HCC1937 and HCC1937+BRCA1 cells form slow-growing tumors, they were implanted using MATRIGEL™ (Becton-Dickinson Biosciences). To establish tumors, 4×10^6 cells in 200 μL serum-free medium containing 50% MATRIGEL™ were injected into the mammary fat pads around the inguinal area of a pair of 8 week old female NSG mice. Once the initial tumors reached 13 mm in diameter, they were dissected out, minced into 3 mm pieces and implanted into the inguinal area of the mammary fat pads of the experimental mice. Tumors were measured over a 28-day period, and for each time point, the student t-test was used to determine the statistical significance between daily gavage with 400 mg/kg COH29 in 30% solutol and corresponding vehicle control. Thep value less than 0.05 (2 sides) was considered to indicate statistical significance

MOLT-4 xenograft tumors = assay: MOLT-4 mouse xenograft; format: in vivo; settings: MOLT-4, oral twice daily 50 and 100 mg/kg, 12 days
Method: (§1) FIGS. 12A-12D depict the activity of COH29 in mouse xenografts. Cancer cells were implanted and allowed to grow at the subcutaneous site until the tumor was measurable. Subcutaneous xenograft growth curves for leukemic-(MOLT-4) mice treated for 12 days with oral COH29 in twice-daily dosing at 50 and 100 mg/kg (FIG. 12A) and for ovarian cancer bearing mice (TOV112D) treated for 7 days with 200, 300, or 400 mg/kg of oral COH29 (FIG. 12B) (shown are the average±SDs for 4 animals/group). FIG. 12C depicts the activity of RNR in MOLT-4 tumor xenografts from mice treated with vehicle (solutol-15) or 100 mg/kg of oral COH29 for 12 days. FIG. 12D depicts the effect of oral COH29 on intratumoral dTNP pools from MOLT-4 tumor xenografts.

TOV112D xenograft tumors = assay: TOV112D mouse xenograft; format: in vivo; settings: oral 200, 300 or 400 mg/kg, 7 days
Method: as §1

[2] = tested on: wild-type zebrafish embryos; assay: Zebrafish genotoxicity assay; format: in vivo, Danio rerio; settings: embryos treated 1 to 7 dpf, COH29 0-100 μM
Method: The PARP1 activity was determined using the PARP1 Chemiluminescent Assay Kit (BPS Bioscience, San Diego) according to the manufacturer's protocol. Briefly, the ribosylation reaction was carried out with activated DNA in PARP assay buffer using test inhibitor, positive control, substrate control and blank reactions, for 1 hour at 25° C. Detection was by streptavidin-HRP with chemiluminescent substrate A and B read in a luminometer. NZebrafish (Danio rerio) were obtained from zebrafish Core facility of Taipei Medical University and maintained at 28° C. on a 14 h light/10 h dark cycle. Embryos were incubated at 28° C. and different developmental stages were determined as described (25). Wild-type embryos were treated with different concentrations of HU (0, 5, 10, 20, 50 mM) or COH29 (0, 10, 20, 50, 100 μM) at 20 hpf to evaluate the mutagenic effect. Fifteen embryos were treated per well condition. […] Embryos were observed using an Olympus IX70-FLA inverted fluorescence microscope. Images were taken using SPOT digital camera system (Diagnostic Instruments, Sterling Heights, Mich., USA) and assembled with Image) software (26).
To assess the genotoxicity of COH29, wild-type zebrafish embryos were treated from 1 to 7 dpf (day post-fertilization) with a range of doses of COH29 (0-100 μM) and compared to embryos similarly treated with HU (0-50 mM) which is known to cause developmental defects.

[3] = tested on: MCF7 cells containing wild-type p53; assay: DNA damage checkpoint Western blot, MCF-7; format: cell-based, human
Method: FIG. 6. COH29 treatment activates DNA damage checkpoint. The effect of COH29 treatment on DNA damage checkpoint proteins in human breast cancer cells expressing wt p53 (MCF-7) or defective for p53 (MCF-7p53−/−), and in triple-negative breast cancer cells (MDA-MB-468) assessed by Western Blot.
For subcellular fractionation, cells were trypsinized and washed with cold PBS solution twice. After centrifugation at 1,200 g for 5 min, cells were incubated in buffer (50 mM HEPES, pH 7.5, 150 mM NaCl, 1 mM EDTA) containing 0.2% NONIDET™ P-40 (NP-40), supplemented with protease inhibitors (5 μg/ml each of pepstatin, leupeptin, and aprotinin) and phosphatase inhibitors on ice for 5 min. Following centrifugation at 1,000 g for 5 min, the supernatant was collected (i.e., cytoplasmic fraction) and pellets were washed with the same buffer twice. The washed samples were extracted for 40 min on ice with fractionation buffer containing 0.5% NP-40 for nuclear fraction. All the samples were sonicated and clarified by centrifugation at 16,000 g for 15 min. Protein concentrations of all fractions were determined with Bio-Rad Protein Assay (Bio-Rad Laboratories, Hercules, Calif.). Immunoblotting was performed as described previously (21,22). […] The immunoblots were visualized on film with the West-Q chemi-luminescence kit (GenDEPOT, Barker, Tex.).

[4] = GLP toxicity study in rats; format: in vivo; settings: for Toxicity: Sprague-Dawley rats, top dose 125 mg/kg
Source text: (§2) Toxicity studies in rats and dogs at doses equivalent to 10× that dose have not shown toxicity at 10 or 21 days.

[5] = GLP toxicity study in dogs; format: in vivo; settings: for Toxicity: Beagles, top dose 42 mg/kg
Source text: as §2

SMILES: O=C(Nc1nc(-c2ccc(O)c(O)c2)c(-c2ccccc2)s1)c1ccc(O)c(O)c1 [COH29, N-(4-(3,4-dihydroxyphenyl)-5-phenylthiazol-2-yl)-3,4-dihydroxybenzamide]
- IC50 [1]: < 10 µM
- growth of tumors vs vehicle (HCC1937 tumors): significantly (p=0.0007) suppressed
- xenograft tumor growth (MOLT-4 xenograft tumors): inhibited
- xenograft tumor growth (TOV112D xenograft tumors): inhibited
- viability of embryos [2]: no developmental defects (FIG. 5C) or decrease in viability
- developmental defects ([2]; HU 0-50 mM): no developmental defects
- DNA damage checkpoint (phosphorylation of ATM, CHK1, CHK2) [3]: activated the DNA damage checkpoint
- γ-H2AX level [3]: increase
- Toxicity ([4]; 10 days): none
- Toxicity ([4]; 21 days): none
- NOAEL ([4]; Sprague-Dawley, rat, in vivo): 250 mg/kg/day
- Toxicity ([5]; 10 days): none
- Toxicity ([5]; 21 days): none
- NOAEL ([5]; beagle, dog, in vivo): 84 mg/kg/day
